The melting point is the temperature of the solid-liquid transition. As for `CC[C@@]1(OC(=O)CCCBr)C(=O)OCc2c1cc1n(c2=O)Cc2c-1nc1ccccc1c2CO`, the melting point was 172 to 176 °C (dec.).
